The source of these data is US11623923B2, “Uracil compound as c-MET/AXL inhibitor” (MEDSHINE DISCOVERY, INC., priority 2017, dated 2023).

Read-outs that look alike come from different tables or passages of the source.

Test [1] has as its system MKN45 gastric cancer cell line. Put plainly: Assay of inhibitory effect on cell proliferation (CellTiter-Glo). The test is classed as cell-based. As to conditions: Homo sapiens, MKN-45, 72 h, read-out: MKN45 cell IC50. From the text: Assay Example 2: Assay of Inhibitory Effect on Cell Proliferation
1. cell culture: DMEM medium, fetal bovine serum, DPBS
2. cell line: MKN45 gastric cancer cell line
3. detection reagent: live cell detection kit CellTiter-Glo
4. other main materials and reagents: compound dilution plate, middle plate, detection plate, DMSO
The content of ATP directly reflects the number and state of cells. By quantitation of ATP, the number of living cells can be detected. The living cell detection kit contains luciferase and its substrate. Through the participation of ATP, the luciferase can catalyze the substrate to emit a stable light signal. The number of ATP in the cells was determined by detecting the intensity of the signal. The light signal was directly proportional to the number of ATP in the cells, while ATP was positively correlated with the number of living cells, so that the proliferation of cells can be detected. The test plate was analyzed using Envision from PE Inc.
1. Preparation of the Cell Plate
The MKN45 cells were seeded into a 384-well plate with 200 cells per well. The cell plate was placed in a carbon dioxide incubator and incubated overnight.
2. Preparation of Compounds
Compounds were subject to a 5-fold serial dilution with Echo to obtain nine concentrations, in duplicate.
3. Treatment of Cells with Compounds
The compounds were transferred to the cell plate at an initial concentration of […]. The cell plate was placed in a carbon dioxide incubator and incubated for three days.
A Promega CellTiter-Glo reagent was added to the cell plate and incubated at room temperature for 10 minutes to stabilize the luminescence signal. A PerkinElmer Envision multi-label analyzer was used for reading.
On the technique in general: In ATP-based viability assays light output follows the ATP content of the culture.

The subject of test [2] is MKN45 gastric cancer cells. Put plainly: Drug efficacy in a model with subcutaneous xenograft tumor of MKN45 gastric cancer cells. The test is classed as in vivo, BALB/c nude mice. As to conditions: day 14 after administration; for Tumor volume (Day 14): Mean ± SEM. As to the method: Assay Example 3: Assay of Drug Efficacy in a Model with Subcutaneous Xenograft Tumor of MKN45 Gastric Cancer Cells
MKN45 cells were cultured in vitro in monolayer. The culture conditions were RPMI1640 medium plus 10% heat-inactivated fetal bovine serum, 1% penicillin-streptomycin, 37° C., and 5% CO2. The passaging was carried out by conventional digestion with trypsin-EDTA twice a week. When the cells were in the exponential growth phase, the cells were collected, counted, and inoculated.
(§1) BALB/c nude mice, male, 6-8 weeks old, weighted 18-22 grams.
0.2 ml of a suspension containing 5×10^6 MKN45 cells was inoculated subcutaneously on the right back of each mouse. When the average volume of the tumor reached about 160 mm^3, administration to each group was started.
Assay index: the assay index is to investigate whether the tumor growth is inhibited, delayed or cured. Tumor diameter was measured twice a week with a vernier caliper. The calculation formula of tumor volume is: V=0.5a×b^2, wherein a and b represent the long and short diameters of the tumor, respectively. The anti-tumor efficacy (TGI) of the compound was evaluated by T-C (day) and T/C (%).
Assay results: See Table 3.

In test [3] the test system is MHCC97H cell. As to conditions: read-out: MHCC97H cell IC50; cited from earlier work.
Test [4] concerns Hs746t gastric cancer cells. Nature of the test: Drug efficacy in a model with subcutaneous xenograft tumor of Hs746t gastric cancer cells. Type of test: in vivo, BALB/c nude mice. The settings on record: for Tumor volume (Day 0): Day 0, Mean ± SEM; for Tumor volume (Day 20): Day 20, Mean ± SEM. On the procedure: Assay Example 4: Assay of Drug Efficacy in a Model with Subcutaneous Xenograft Tumor of Hs746t Gastric Cancer Cells
Human gastric cancer Hs746t cells were cultured in vitro in monolayer. The culture conditions were DMEM medium plus 10% fetal bovine serum, 100 U/mL penicillin and 100 U/mL streptomycin, 37° C., 5% CO2 incubator. The passaging was carried out by conventional digestion with trypsin-EDTA twice a week. When the cell saturation was 80%-90%, and the number met the requirements, the cells were collected, counted, and inoculated.
as §1
0.2 mL (2×10^6, cells:Matrigel=1:1) of HS 746T cells were subcutaneously inoculated on the right back of each mouse. When the average tumor volume reached about 100-150 mm^3, administration to each group was started.
Assay index: The assay index is to investigate whether tumor growth is inhibited, delayed or cured. Tumor diameter was measured twice a week with a vernier caliper. The calculation formula of tumor volume is: V=0.5a×b^2, wherein a and b represent the long and short diameters of the tumor, respectively. The anti-tumor efficacy (TGI) of the compound was evaluated by T-C (day) and T/C (%).
Assay results: See Table 4.

Where [5] appears, read: three days incubation, CellTiter-Glo.

Usually IC50 stands for the point on the concentration scale where inhibition reaches its midpoint. Take `C=CCn1cc(C(=O)Nc2ccc(Oc3ccnc(N)c3Cl)c(F)c2)c(=O)n(-c2ccc(F)cc2)c1=O` [Example 2]: the IC50 in test [1] stood at 78 nM.

For the compound `NC(=O)Nc1cc(Oc2ccc(NC(=O)c3cn(CC4CC4)c(=O)n(-c4ccc(F)cc4)c3=O)cc2F)ccn1` [Example 16], the IC50 in test [1] was determined as 50.7 nM.

What is called T/C is the ratio of treated to control. Take `CC(C)n1cc(C(=O)Nc2ccc(Oc3ccnc(N)c3Cl)c(F)c2)c(=O)n(-c2ccc(F)cc2)c1=O` [Example 1]: in test [2], the T/C turned out to be 16.5%, the TGI is on record as 95.1% and the “Tumor volume (Day 14)” value is reported as 218 ± 31 mm^3. Also, the IC50 in test [1] worked out at 54 nM.

Regarding `CC(C)Cn1cc(C(=O)Nc2ccc(Oc3ccnc(N)c3Cl)c(F)c2)c(=O)n(-c2ccc(F)cc2)c1=O` [Example 8], the IC50 in test [1] (setting [5]) amounted to 374 nM.

With `O=C(Nc1ccc(Oc2ccnc(NC(=O)N3CCC3)c2)c(F)c1)c1cn(CC2CC2)c(=O)n(-c2ccc(F)cc2)c1=O` [Example 18], the IC50 in test [1] turned out to be 12.1 nM.

Turning to `Nc1nccc(Oc2ccc(NC(=O)c3cn(CC(F)F)c(=O)n(-c4ccc(F)cc4)c3=O)cc2F)c1Cl` [Example 9], the IC50 in test [1] came out at 365 nM.

On to `Cc1[nH]c(=O)n(-c2ccc(F)cc2)c(=O)c1C(=O)Nc1ccc(Oc2ccnc(N)c2Cl)c(F)c1` [Example 11], for which the IC50 in test [1] was found to be 240 nM.

For `Nc1nccc(Oc2ccc(NC(=O)c3cn(CC4CC4(F)F)c(=O)n(-c4ccc(F)cc4)c3=O)cc2F)c1Cl` (stereo not shown) [Example 3], the IC50 in test [1] (setting [5]) turned out to be 27 nM.

`CN1CCC(COc2cnc(-c3cccc(Cn4nc(-c5cccc(C#N)c5)ccc4=O)c3)nc2)CC1` [Tepotinib]: the IC50 in test [3] is 6.2 nM.

Consider `Cc1ccc(C(=O)Nc2ccc(Oc3cc4cnn(C)c4cc3-c3cn[nH]c3)c(F)c2)c(=O)n1-c1ccc(F)cc1` [LY2801653, reference compound], for which, in test [4] (4.5 mpk), the TGI is on record as 101.62%, the “Tumor volume (Day 0)” value is on record as 127 ± 12 mm^3, the “T/C (Day 20)” value is 3.45% and the “Tumor volume (Day 20)” value is 88 ± 13 mm^3.

Regarding `Nc1nccc(Oc2ccc(NC(=O)c3c4n(c(=O)n(-c5ccc(F)cc5)c3=O)CCC4)cc2F)c1Cl` [Example 12], the IC50 in test [1] (setting [5]) is 315 nM.

Turning to `CCOc1ccn(-c2ccc(F)cc2)c(=O)c1C(=O)Nc1ccc(Oc2ccnc(N)c2Cl)c(F)c1` [BMS777607, reference compound], in test [4] (4.5 mpk), the TGI came out at 27.61%, the “Tumor volume (Day 0)” value is recorded as 127 ± 11 mm^3, the “T/C (Day 20)” value amounted to 73.58% and the “Tumor volume (Day 20)” value was determined as 1872 ± 355 mm^3. Further, the IC50 in test [1] (setting [5]) was 436 nM.

In the case of `N#Cc1c(Oc2ccc(NC(=O)c3cn(CC4CC4)c(=O)n(-c4ccc(F)cc4)c3=O)cc2F)ccnc1N` [Example 14], the IC50 in test [1] was determined as 30 nM.

With `O=C(Nc1ccc(Oc2ccnc(NC(=O)N3CCOCC3)c2)c(F)c1)c1cn(CC2CC2)c(=O)n(-c2ccc(F)cc2)c1=O` [Example 13], the IC50 in test [1] amounted to 38 nM.

For `Nc1nccc(Oc2ccc(NC(=O)c3cn(CC4CC4)c(=O)n(-c4ccc(F)cc4)c3=O)cc2F)c1Cl` [Example 5], in test [4] (4.5 mpk), the TGI is reported as 104.43%, the “Tumor volume (Day 0)” value was determined as 126 ± 10 mm^3, the “T/C (Day 20)” value was 0.78% and the “Tumor volume (Day 20)” value was 20 ± 8 mm^3. Moreover, in test [4] (9 mpk), the TGI is listed as 105.01%, the “Tumor volume (Day 0)” value came to 127 ± 10 mm^3, the “T/C (Day 20)” value was found to be 0.00% and the “Tumor volume (Day 20)” value was 0 ± 0 mm^3. Besides, in test [2], the T/C was 15.3%, the TGI was determined as 96.9% and the “Tumor volume (Day 14)” value amounted to 196 ± 17 mm^3. Besides, the IC50 in test [1] amounted to 11 nM.

Regarding `CN(C)C(=O)Nc1cc(Oc2ccc(NC(=O)c3cn(CC4CC4)c(=O)n(-c4ccc(F)cc4)c3=O)cc2F)ccn1` [Example 17], in test [4] (1.5 mpk), the TGI is recorded as 74.16%, the “Tumor volume (Day 0)” value came to 127 ± 12 mm^3, the “T/C (Day 20)” value was found to be 30.68% and the “Tumor volume (Day 20)” value stood at 780 ± 195 mm^3. In test [4] (4.5 mpk), the TGI is 104.82%, the “Tumor volume (Day 0)” value was found to be 127 ± 13 mm^3, the “T/C (Day 20)” value worked out at 0.15% and the “Tumor volume (Day 20)” value was 4 ± 2 mm^3. Further, in test [4] (9 mpk), the TGI came to 105.02%, the “Tumor volume (Day 0)” value came out at 127 ± 9 mm^3, the “T/C (Day 20)” value is reported as 0.00% and the “Tumor volume (Day 20)” value is given as 0 ± 0 mm^3.

Take `O=C(Nc1ccc(Oc2ccnc(NC(=O)N3CCCC3)c2)c(F)c1)c1cn(CC2CC2)c(=O)n(-c2ccc(F)cc2)c1=O` [Example 20]: the IC50 in test [1] worked out at 29.1 nM.
